For this experiment, the system named is PANC-1 (human pancreatic cancer-derived cell line). In words: MTS assay on Panc-1 (human pancreas carcinoma cell line). The experiment is classed as cell-based. To be noted: 144 h; for IC50: PANC-1, MTS method, cell survival 6 days after exposure, 4-parameter logistic fit; for inhibition at 10 µM: read-out: Growth inhibition (%) 10 μM; for inhibition at 2.5 µM: read-out: Growth inhibition (%) 2.5 μM; for inhibition at 0.3125 µM: read-out: Growth inhibition (%) 0.3125 μM. The procedure, abridged: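 Viability measured by MTS 6 days after treating human pancreatic carcinoma PANC-1 cells with compound serially diluted 2-fold in DMSO; absorbance 492–630 nm normalized to solvent control. Triplicate measurements averaged and fitted to a 4-parameter logistic curve.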

In turn, `CN1CCC(N2C[C@@H]3N(C(=O)/C=C/c4nc5ccccc5s4)c4ccc(F)cc4C(=O)N3[C@@H](CCCCN(C)C3CCN(C(=O)OC(C)(C)C)CC3)C2=O)CC1` [ID-59, tert-butyl 4-((4-((4S,11aS)-11-((E)-3-(benzo[d]thiazol-2-yl)acryloyl)-8-fluoro-2-(1-methylpiperidin-4-yl)-3,6-dioxo-1,3,4,6,11,11a-hexahydro-2H-pyrazino[2,1-b]quinazolin-4-yl)butyl) (methyl)amino)piperidine-1-carboxylate] showed an IC50 of 550 nM. For the same compound, the inhibition at 1 µM (PANC-1, MTS, 6 days, 1 μM, read-out: Growth inhibition (%) 1 μM) stood at 98.8%.
`CSCC[C@H]1C(=O)N(C2CCN(C)CC2)C[C@@H]2N(C(=O)/C=C/c3nc4ccccc4s3)O[C@H](CC(C)C)C(=O)N21` [ID-60, (3R,6S,9aS)-1-((E)-3-(benzo[d]thiazol-2-yl)acryloyl)-3-isobutyl-8-(1-methylpiperidin-4-yl)-6-(2-(methylthio)ethyl)tetrahydropyrazino[2,1-c][1,2,4]oxadiazine-4,7(3H,6H)-dione] yielded a half-maximal inhibitory concentration (IC50) of 270 nM. For the same compound, the inhibition at 10 µM (PANC-1, MTS, 6 days) worked out at 93.7%.
`CC(C)C[C@H]1ON(C(=O)/C=C/c2ccccn2)[C@H]2CN(C3CCN(C)CC3)C(=O)[C@H](Cc3ccc(O)cc3)N2C1=O` [ID-61, (3R,6S,9aS)-6-(4-hydroxybenzyl)-3-isobutyl-8-(1-methylpiperidin-4-yl)-1-((E)-3-(pyridin-2-yl)acryloyl)tetrahydropyrazino[2,1-c][1,2,4]oxadiazine-4,7(3H,6H)-dione] returned an IC50 of 7300 nM. That is a single-digit micromolar value.
On to `CC(C)C[C@H]1ON(C(=O)/C=C/c2ccccn2)[C@H]2CN(C3CCN(C4CCOCC4)CC3)C(=O)[C@H](CC(C)C)N2C1=O` [ID-62, (3R,6S,9aS)-3,6-diisobutyl-1-((E)-3-(pyridin-2-yl)acryloyl)-8-(1-(tetrahydro-2H-pyran-4-yl)piperidin-4-yl)tetrahydropyrazino[2,1-c][1,2,4]oxadiazine-4,7(3H,6H)-dione], for which half-maximal inhibition (IC50) was put at 3400 nM.
As for `CC(C)C[C@H]1ON(C(=O)/C=C/c2ccccn2)[C@H]2CN(C3CCN(C4CCCCC4)CC3)C(=O)[C@H](CC(C)C)N2C1=O` [ID-63, (3R,6S,9aS)-8-(1-cyclohexylpiperidin-4-yl)-3,6-diisobutyl-1-((E)-3-(pyridin-2-yl)acryloyl)tetrahydropyrazino[2,1-c][1,2,4]oxadiazine-4,7(3H,6H)-dione], the half-inhibitory concentration (IC50) was 1400 nM.
The compound `CC(C)C[C@H]1ON(C(=O)/C=C/c2nc3ccccc3s2)[C@H]2CN(C3CCOCC3)C(=O)[C@H](CC(C)C)N2C1=O` [ID-64, (3R,6S,9aS)-1-((E)-3-(benzo[d]thiazol-2-yl)acryloyl)-3,6-diisobutyl-8-(tetrahydro-2H-pyran-4-yl)tetrahydropyrazino[2,1-c][1,2,4]oxadiazine-4,7(3H,6H)-dione] gave a 50% inhibitory concentration (IC50) of 880 nM.
Compound `CC(C)C[C@H]1ON(C(=O)/C=C/c2ccccn2)[C@H]2CN(C3CCCN(C)C3)C(=O)[C@H](CC(C)C)N2C1=O` (stereo partly drawn) [ID-65, (3R,6S,9aS)-3,6-diisobutyl-8-(1-methylpiperidin-3-yl)-1-((E)-3-(pyridin-2-yl)acryloyl)tetrahydropyrazino[2,1-c][1,2,4]oxadiazine-4,7(3H,6H)-dione] registered a half-maximal inhibitory concentration (IC50) of 4700 nM. In addition, the inhibition at 10 µM (PANC-1, MTS, 6 days) was determined as 96.5%.
As for `CC(C)C[C@H]1ON(C(=O)/C=C/c2ccccn2)[C@H]2CN(C3CCN(C)CC3)C(=O)[C@H](Cc3ccccc3)N2C1=O` [ID-66, (3R,6S,9aS)-6-benzyl-3-isobutyl-8-(1-methylpiperidin-4-yl)-1-((E)-3-(pyridin-2-yl)acryloyl)tetrahydropyrazino[2,1-c][1,2,4]oxadiazine-4,7(3H,6H)-dione], the IC50 stood at 5200 nM. Also, under “PANC-1, MTS, 6 days”, the inhibition at 10 µM was 96.7%.
Taken in the same sequence, the figures for `CC(C)C[C@H]1ON(C(=O)/C=C/c2ccccn2)[C@H]2CN(C3CCCN(C)CC3)C(=O)[C@H](CC(C)C)N2C1=O` (stereo partly drawn) [ID-67, (3R,6S,9aS)-3,6-diisobutyl-8-(1-methylazepan-4-yl)-1-((E)-3-(pyridin-2-yl)acryloyl)tetrahydropyrazino[2,1-c][1,2,4]oxadiazine-4,7(3H,6H)-dione] were 3300 nM and 100%.
Compound `CC(C)C[C@H]1ON(C(=O)/C=C/c2ccccn2)[C@H]2CN(C3CCC(N)CC3)C(=O)[C@H](CC(C)C)N2C1=O` (stereo partly drawn) [ID-68, (3R,6S,9aS)-8-(4-aminocyclohexyl)-3,6-diisobutyl-1-((E)-3-(pyridin-2-yl)acryloyl)tetrahydropyrazino[2,1-c][1,2,4]oxadiazine-4,7(3H,6H)-dione] had an IC50 of 2800 nM.
For the compound `CC(C)C[C@H]1ON(C(=O)/C=C/c2ccccn2)[C@H]2CN(C3CCC(N(C)C)CC3)C(=O)[C@H](CC(C)C)N2C1=O` (stereo partly drawn) [ID-69, (3R,6S,9aS)-8-(4-(dimethylamino)cyclohexyl)-3,6-diisobutyl-1-((E)-3-(pyridin-2-yl)acryloyl)tetrahydropyrazino[2,1-c][1,2,4]oxadiazine-4,7(3H,6H)-dione], 2800 nM corresponded to half-maximal inhibition (IC50).
`CC(C)C[C@H]1ON(C(=O)/C=C/c2ccccn2)[C@H]2CN(C3CC4CCC(C3)N4C)C(=O)[C@H](CC(C)C)N2C1=O` (stereo partly drawn) [ID-70, (3R,6S,9aS)-3,6-diisobutyl-8-(8-methyl-8-azabicyclo[3.2.1]octan-3-yl)-1-((E)-3-(pyridin-2-yl)acryloyl)tetrahydropyrazino[2,1-c][1,2,4]oxadiazine-4,7(3H,6H)-dione] registered a concentration for half-maximal inhibition (IC50) of 2500 nM.
`CC(C)C[C@H]1ON(C(=O)/C=C/c2ccc(C(F)(F)F)cn2)[C@H]2CN(C3CCN(C)CC3)C(=O)[C@H](CC(C)C)N2C1=O` [ID-71, (3R,6S,9aS)-3,6-diisobutyl-8-(1-methylpiperidin-4-yl)-1-((E)-3-(5-(trifluoromethyl)pyridin-2-yl)acryloyl)tetrahydropyrazino[2,1-c][1,2,4]oxadiazine-4,7(3H,6H)-dione]: the inhibition at 2.5 µM (PANC-1, MTS, 6 days) worked out at 97.3%.
Turning to `COc1ccc(/C=C/C(=O)N2O[C@H](CC(C)C)C(=O)N3[C@@H]2CN(C2CCN(C)CC2)C(=O)[C@@H]3CC(C)C)nc1` [ID-72, (3R,6S,9aS)-3,6-diisobutyl-1-((E)-3-(5-methoxypyridin-2-yl)acryloyl)-8-(1-methylpiperidin-4-yl)tetrahydropyrazino[2,1-c][1,2,4]oxadiazine-4,7(3H,6H)-dione], the inhibition at 2.5 µM (PANC-1, MTS, 6 days) is 37%.
`CC(C)C[C@H]1ON(C(=O)/C=C/c2nc3ccccc3s2)[C@H]2CN(C3CCN(C(C)C)CC3)C(=O)[C@H](CC(C)(C)C)N2C1=O` [ID-73, (3R,6S,9aS)-1-((E)-3-(benzo[d]thiazol-2-yl)acryloyl)-3-isobutyl-8-(1-isopropylpiperidin-4-yl)-6-neopentyltetrahydropyrazino[2,1-c][1,2,4]oxadiazine-4,7(3H,6H)-dione] yielded an IC50 of 140 nM. Besides, the inhibition at 0.3125 µM (PANC-1, MTS, 6 days) turned out to be 88.1%.
On to `CC(C)C[C@H]1ON(C(=O)/C=C/c2nc3ccccc3s2)[C@H]2CN(C3CCN(C)CC3)C(=O)[C@H](CCS(C)(=O)=O)N2C1=O` [ID-74, (3R,6S,9aS)-1-((E)-3-(benzo[d]thiazol-2-yl)acryloyl)-3-isobutyl-8-(1-methylpiperidin-4-yl)-6-(2-(methylsulfonyl)ethyl)tetrahydropyrazino[2,1-c][1,2,4]oxadiazine-4,7(3H,6H)-dione], for which the inhibition at 0.3125 µM (PANC-1, MTS, 6 days) was found to be 38.7%.
For the compound `CC(C)C[C@H]1ON(C(=O)/C=C/c2nc3ccccc3s2)[C@H]2CN(C3CCN(CCCN)CC3)C(=O)[C@H](CC(C)(C)C)N2C1=O` [ID-75, (3R,6S,9aS)-8-(1-(3-aminopropyl)piperidin-4-yl)-1-((E)-3-(benzo[d]thiazol-2-yl)acryloyl)-3-isobutyl-6-neopentyltetrahydropyrazino[2,1-c][1,2,4]oxadiazine-4,7(3H,6H)-dione], the IC50 worked out at 390 nM. Further, the inhibition at 0.3125 µM (PANC-1, MTS, 6 days) came to 19.9%.
Turning to `CC(C)C[C@H]1ON(C(=O)/C=C/c2nc3ccccc3s2)[C@H]2CN(C3CCN(CCCC(=O)O)CC3)C(=O)[C@H](CC(C)(C)C)N2C1=O` [ID-76, 4-(4-((3R,6S,9aS)-1-((E)-3-(benzo[d]thiazol-2-yl)acryloyl)-3-isobutyl-6-neopentyl-4,7-dioxohexahydropyrazino[2,1-c][1,2,4]oxadiazin-8 (1H)-yl)piperidin-1-yl)butanoic acid], the IC50 turned out to be 1600 nM.
Consider `CC(C)C[C@H]1ON(C(=O)/C=C/c2nc3ccccc3s2)[C@H]2CN(C3CCN(CCOCCO)CC3)C(=O)[C@H](CC(C)(C)C)N2C1=O` [ID-77, (3R,6S,9aS)-1-((E)-3-(benzo[d]thiazol-2-yl)acryloyl)-8-(1-(2-(2-hydroxyethoxy)ethyl)piperidin-4-yl)-3-isobutyl-6-neopentyltetrahydropyrazino[2,1-c][1,2,4]oxadiazine-4,7(3H,6H)-dione], for which the inhibition at 0.3125 µM (PANC-1, MTS, 6 days) is 55.2%.
On the same count and under the same terms, the figure for `CSc1nccc(/C=C/C(=O)N2O[C@H](CC(C)C)C(=O)N3[C@@H]2CN([C@H]2CCN(CCCCO)C2)C(=O)[C@@H]3CC(C)(C)C)n1` [ID-78, (3R,6S,9aS)-8-((S)-1-(4-hydroxybutyl)pyrrolidin-3-yl)-3-isobutyl-1-((E)-3-(2-(methylthio)pyrimidin-4-yl)acryloyl)-6-neopentyltetrahydropyrazino[2,1-c][1,2,4]oxadiazine-4,7(3H,6H)-dione] is 41.5%; for `CC(C)C[C@H]1ON(C(=O)/C=C/c2nc3ccccc3s2)[C@H]2CN(C3CCN(CCCO)CC3)C(=O)[C@H](CC(C)(C)C)N2C1=O` [ID-79, (3R,6S,9aS)-1-((E)-3-(benzo[d]thiazol-2-yl)acryloyl)-8-(1-(3-hydroxypropyl)piperidin-4-yl)-3-isobutyl-6-neopentyltetrahydropyrazino[2,1-c][1,2,4]oxadiazine-4,7(3H,6H)-dione] it is 72.2%.

One may read the IC50 as the midpoint of a concentration-inhibition curve. The term inhibition denotes the share of the control response that was lost under treatment.

(Values after US20230265104A1, “NOVEL HETEROCYCLIC COMPOUNDS” (PRISM BIOLAB CO., LTD., priority 2020, published 2023).)
